According to patent publication US20040063716A1, “Cholesterol biosynthesis inhibitors containing as the active ingredient tricyclic spiro compounds” (priority 2000, published 2004):

Columns and labels:
[1] = test system: human plasma; test: Measurement of intrinsic coagulation time (APTT) in vitro; format: biochemical
Procedure: Activated partial thromboplastin time (APTT) is measured in the presence of the test compounds diluted at various concentrations. A test compound diluted with DMSO at various concentrations is mixed with human plasma and APTT reagent. The mixture is incubated at 37° C. for 2 minutes; calcium chloride (25 mM) is added to the mixture; and the coagulation time is thereafter measured. It should be noted that the anticoagulant activity of the test compound is described in terms of the concentration required to double the coagulation time for the case where no test compound is added.

[2] = target: T1, human FXa (Homo sapiens, UniProt P00742); test: Measurement of human FXa inhibitory action (chromogenic substrate S-2222); format: biochemical; conditions: human FXa 0.019 U/ml, S-2222 0.4 mM, 37° C., pH 7.5
T1 construct: purchased Enzyme Research Laboratories, Inc
T1 sequence (P00742 235-488 limits assumed): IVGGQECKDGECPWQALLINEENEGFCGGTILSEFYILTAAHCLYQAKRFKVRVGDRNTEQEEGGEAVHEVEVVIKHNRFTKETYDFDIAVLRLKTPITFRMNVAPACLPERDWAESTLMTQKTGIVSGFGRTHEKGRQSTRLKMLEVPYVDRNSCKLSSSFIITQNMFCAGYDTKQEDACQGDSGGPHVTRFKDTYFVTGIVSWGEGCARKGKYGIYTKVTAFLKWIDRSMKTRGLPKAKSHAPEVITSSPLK
T1 sequence (P00742 41-179 partner limits assumed): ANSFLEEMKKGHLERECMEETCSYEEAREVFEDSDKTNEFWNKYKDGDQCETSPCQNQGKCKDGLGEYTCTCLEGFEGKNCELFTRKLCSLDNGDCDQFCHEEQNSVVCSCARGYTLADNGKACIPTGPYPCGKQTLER
Procedure: In vitro FXa inhibitory activity is measured in accordance with the method of Kettner et al. (Journal of Biological Chemistry, vol. 265, pages 18289 to 18297, 1990). To be more specific, human FXa (product of Enzyme Research Laboratories, Inc., 0.019 U/ml) is mixed with a test compound diluted with dimethylsulfoxide (DMSO) at various concentrations and a synthetic substrate S-2222 (Chromogenix AB, 0.4 mM). The mixtures are incubated at 37° C. in Tris-hydrochloric acid buffer (pH 7.5) while the absorbance at 405 nm is measured continuously. To calculate the FXa inhibitory activity of the test compound, the initial reaction velocity is compared with the value for a control containing no test compound. It should be noted that the FXa inhibitory activity of the test compound is generally indicated as IC50.

| IC50 [2] | Structure (SMILES) | Concentration required to double coagulation time [1] |
| --- | --- | --- |
|  | NCC12CN(S(=O)(=O)c3ccc4cc(Cl)ccc4c3)CC(=O)N1CC1(CCN(c3ccncc3)CC1)O2 (centres unmarked) [Example 58, 6-(Aminomethyl)-1,4-diaza-4-(6-chloronaphthalen-2-ylsulfonyl)-7-oxa-1′-(4-pyridyl)spiro[bicyclo[4.3.0]nonane-8,4′-piperidin]-2-one] | 0.18 µM |
|  | COCCOC(=O)C12CN(S(=O)(=O)c3ccc4cc(Cl)ccc4c3)CC(=O)N1CC1(CCN(c3ccncc3)CC1)O2 (single isomer, unassigned; (-)) [Example 42, (−)-1,4-Diaza-4-(6-chloronaphthalen-2-ylsulfonyl)-6-(2-methoxyethoxycarbonyl)-7-oxa-1′-(4-pyridyl)spiro[bicyclo[4.3.0]nonane-8,4′-piperidin]-2-one] | 0.20 µM |
| 5.7 nM | O=C1CN(S(=O)(=O)c2ccc3cc(Cl)ccc3c2)CC2NC3(CCN(c4ccncc4)CC3)CN12 (centres unmarked) [Example 765, 1,4,7-Triaza-4-(6-chloronaphthalen-2-ylsulfonyl)-1′-(4-pyridyl)spiro[bicyclo[4.3.0]nonane-8,4′-piperidin]-2-one] |  |
|  | COCC12CN(S(=O)(=O)c3cc4ccc(Cl)cc4s3)CC(=O)N1CC1(CCN(c3ccncc3)CC1)O2 (centres unmarked) [Example 399, 1,4-Diaza-4-(6-chlorobenzo[b]thiophen-2-ylsulfonyl)-6-(methoxymethyl)-7-oxa-1′-(4-pyridyl)spiro[bicyclo[4.3.0]nonane-8,4′-piperidin]-2-one] | 0.18 µM |
|  | O=C1CN(S(=O)(=O)c2ccc3cc(Cl)ccc3c2)CC2OC3(CCN(c4ccncc4)CC3)CN12 (centres unmarked) [Example 9, 1,4-Diaza-4-(6-chloronaphthalen-2-ylsulfonyl)-7-oxa-1′-(4-pyridyl)spiro[bicyclo[4.3.0]nonane-8,4′-piperidin]-2-one] | 0.29 µM |
|  | CC(C)OC(=O)C12CN(S(=O)(=O)c3ccc4cc(Cl)ccc4c3)CC(=O)N1CC1(CCN(c3ccncc3)CC1)O2 (centres unmarked) [Example 29, 1,4-Diaza-4-(6-chloronaphthalen-2-ylsulfonyl)-6-(isopropoxycarbonyl)-7-oxa-1′-(4-pyridyl)spiro[bicyclo[4.3.0]nonane-8,4′-piperidin]-2-one] | 0.90 µM |
|  | O=C1CN(S(=O)(=O)C=Cc2ccc(Cl)s2)CC2OC3(CCN(c4ccncc4)CC3)CN12 (centres unmarked) [Example 600, 1,4-Diaza-4-[2-(5-chlorothiophen-2-yl)ethenesulfonyl]-7-oxa-1′-(4-pyridyl)spiro[bicyclo[4.3.0]nonane-8,4′-piperidin]-2-one] | 0.22 µM |
| 5.9 nM | O=C1CN(S(=O)(=O)c2ccc3nc(Cl)ccc3c2)CC2OC3(CCN(c4ccncc4)CC3)CN12 (centres unmarked) [Example 760, 1,4-Diaza-4-(2-chloroquinolin-6-ylsulfonyl)-7-oxa-1′-(4-pyridyl)spiro[bicyclo[4.3.0]nonane-8,4′-piperidin]-2-one] |  |
|  | COCC12CN(S(=O)(=O)C=Cc3ccc(Cl)s3)CC(=O)N1CC1(CCN(c3ccncc3)CC1)N2C (centres unmarked) [Example 740, 1,4,7-Triaza-4-[2-(5-chlorothiophen-2-yl)ethenesulfonyl]-6-(methoxymethyl)-7-methyl-1′-(4-pyridyl)spiro[bicyclo[4.3.0]nonane-8,4′-piperidin]-2-one] | 0.18 µM |
| 3.4 nM | CCOC(=O)NCC12CN(S(=O)(=O)c3ccc4cc(Cl)ccc4c3)CC(=O)N1CC1(CCN(c3ccncc3)CC1)O2 (centres unmarked) [Example 59, 1,4-Diaza-4-(6-chloronaphthalen-2-ylsulfonyl)-6-(ethoxycarbonylaminomethyl)-7-oxa-1′-(4-pyridyl)spiro[bicyclo[4.3.0]nonane-8,4′-piperidin]-2-one] |  |
| 0.6 nM | O=C1CN(S(=O)(=O)c2cc3ccc(Cl)cc3s2)CC2OC3(CCN(c4ccncc4)CC3)CN12 (centres unmarked) [Example 213, 1,4-Diaza-4-(6-chlorobenzo[b]thiophen-2-ylsulfunyl)-7-oxa-1′-(4-pridyl)spiro[bicyclo[4.3.0]nonane-8,4′-piperidin]-2-one] |  |
|  | COCC12CN(S(=O)(=O)c3ccc4cc(Cl)ccc4c3)CC(=O)N1CC1(CCN(c3cc[n+](C)cc3)CC1)O2.Cc1ccc(S(=O)(=O)[O-])cc1 (centres unmarked) [Example 23, 4-[1,4-Diaza-4-(6-chloronaphthalen-2-ylsulfonyl)-6-(methoxymethyl)-7-oxa-2-oxospiro[bicyclo[4.3.0]nonane-8,4′-piperidin-1′-yl]]-1-methylpyridinium p-Toluenesulfonate] | 0.62 µM |
| 1.9 nM | O=C1CN(S(=O)(=O)c2ccc3cc(Cl)ccc3c2)CC2(C(=O)O)OC3(CCN(c4ccncc4)CC3)CN12 (centres unmarked) [Example 50, Ammonium 1,4-Diaza-4-(6-chloronaphthalen-2-ylsulfonyl)-7-oxa-2-oxo-1′-(4-pyridyl)spiro[bicyclo[4.3.0]nonane-8,4′-piperidine]-6-carboxylate] |  |
|  | COCC12CN(S(=O)(=O)c3cc4ccc(Cl)cc4s3)CC(=O)N1CC1(CCN(c3ccncc3)CC1)N2 (centres unmarked) [Example 461, 1,4,7-Triaza-4-(6-chlorobenzo[b]thiophen-2-ylsulfonyl)-6-(methoxymethyl)-1′-(4-pyridyl)spiro[bicyclo[4.3.0]nonane-8,4′-piperidin]-2-one] | 0.16 µM |
|  | COCC12CN(S(=O)(=O)c3cc4cc(Cl)ccc4o3)CC(=O)N1CC1(CCN(c3ccncc3)CC1)N2C (centres unmarked) [Example 533, 1,4,7-Triaza-4-(5-chlorobenzo[b]furan-2-ylsulfonyl)-6-(methoxymethyl)-7-methyl-1′-(4-pyridyl)spiro[bicyclo[4.3.0]nonane-8,4′-piperidin]-2-one] | 0.35 µM |
|  | O=C1CN(S(=O)(=O)c2cc3ccc(Cl)cc3s2)CC2NC3(CCN(c4ccncc4)CC3)CN12 (centres unmarked) [Example 275, 1,4,7-Triaza-4-(6-chlorobenzo[b]thiophen-2-ylsulfonyl)-1′-(4-pyridyl)spiro[bicyclo[4.3.0]nonane-8,4′-piperidin]-2-one] | 0.17 µM |
|  | COCC12CN(S(=O)(=O)C3=Cc4ccc(Cl)cc4OC3)CC(=O)N1CC1(CCN(c3ccncc3)CC1)O2 (centres unmarked) [Example 388, 1,4-Diaza-4-(7-chloro-2H-benzopyran-3-sulfonyl)-6-(methoxymethyl)-7-oxa-1′-(4-pyridyl)spiro[bicyclo[4.3.0]nonane-8,4′-piperidin]-2-one] | 0.22 µM |
|  | CC12CN(S(=O)(=O)c3ccc4cc(Cl)ccc4c3)CC(=O)N1CC1(CCN(c3ccncc3)CC1)O2 (centres unmarked) [Example 69, 1,4-Diaza-4-(6-chloronaphthalen-2-ylsulfonyl)-6-methyl-7-oxa-1′-(4-pyridyl)spiro[bicyclo[4.3.0]nonane-8,4′-piperidin]-2-one] | 0.36 µM |
|  | COCC12CN(S(=O)(=O)c3ccc4ccccc4c3)CC(=O)N1CC1(CCN(c3ccncc3)CC1)O2 (centres unmarked) [Example 6, 1,4-Diaza-6-(methoxymethyl)-4-(2-naphthalenesulfonyl)-7-oxa-1′-(4-pyridyl)spiro[bicyclo[4.3.0]nonane-8,4′-piperidin]-2-one] | 0.99 µM |
|  | COCC12CN(S(=O)(=O)c3cc4cc(Cl)ccc4o3)CC(=O)N1CC1(CCN(c3ccncc3)CC1)N2 (centres unmarked) [Example 471, 1,4,7-Triaza-4-(5-chlorobenzo[b]furan-2-ylsulfonyl)-6-(methoxymethyl)-1′-(4-pyridyl)spiro[bicyclo[4.3.0]nonane-8,4′-piperidin]-2-one] | 0.27 µM |
